target: T1, MeCP2-TBL1 interaction (MeCP2-SmBiT / TBL1-LgBiT) (Mus musculus, UniProt Q9QXE7); assay: MeCP2-TBL1 NanoLuc luciferase complementation assay (cell-free, extracts of transfected HEK293 cells); type: binding, human; conditions: primary screen of Asinex library, single well per compound
T1 construct: expressed in transfected cells; crude lysate used as a cell-free assay
T1 sequence (Q9QXE7 166-527): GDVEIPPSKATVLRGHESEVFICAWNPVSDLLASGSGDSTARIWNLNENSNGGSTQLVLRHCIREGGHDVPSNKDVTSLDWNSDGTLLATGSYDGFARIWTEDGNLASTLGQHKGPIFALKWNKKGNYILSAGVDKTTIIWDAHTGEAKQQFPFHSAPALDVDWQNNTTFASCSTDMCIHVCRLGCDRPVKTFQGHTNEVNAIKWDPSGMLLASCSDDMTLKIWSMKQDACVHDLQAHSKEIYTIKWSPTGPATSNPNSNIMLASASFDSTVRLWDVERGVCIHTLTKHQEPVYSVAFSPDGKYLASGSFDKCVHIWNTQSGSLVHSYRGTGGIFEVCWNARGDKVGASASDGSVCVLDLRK
Description: To facilitate the discovery of inhibitors of the interaction between MeCP2 and TBL1/TBLR1, we set out to devise a simple and scalable biochemical assay for measuring the interaction between these two proteins. We initially explored the possibility of screening compound libraries using a previously established fluorescence polarization assay that depends on purified recombinant TBL1/TBLR1[26]. […] The resulting luminescence signal depends on the affinity between the two interacting proteins of interest (Fig. 1A). This method was originally developed to allow for the interrogation of protein–protein interactions in vivo. However, in order to facilitate large scale screening of chemical libraries, we adapted the assay for use as a cell-free system.
We fused the large N-terminal fragment of NanoLuc (LgBiT) to the C-terminus of the WD repeat domains of both TBL1 and TBLR1, and the small C-terminal fragment of NanoLuc (SmBiT) to the C-terminus of the C-terminal half of MeCP2 (Fig. 1B and C). This region of MeCP2 contains the NID (NCoR interaction domain)—the motif in MeCP2 that binds to TBL1/TBLR1.
The AgeI-NotI restriction fragment (encoding EGFP) was then replaced with a codon optimized SmBiT sequence to yield the MeCP2-SmBiT expression plasmid. The TBL1-LgBiT expression vector was derived from a TBL1-mCherry plasmid[25] by replacing the AgeI-NotI restriction fragment (encoding mCherry) with a codon optimized LgBiT sequence. SmBiT-PRKACA and LgBiT-PRKAR2A plasmids are commercially available (Promega, N203 and N204).
Cells were harvested after 24 h and cell pellets were stored at − 80 °C.
In the screens described here, the lysate obtained from a single 15 cm plate was used for 2.5 384-well assay plates. NanoLuc substrate (furimazine) (Promega, N1110) was diluted 1000-fold in passive lysis buffer (Promega, E1941) and added 1:1 to the lysate. Screening libraries were purchased from Asinex[40] and ApexBio (FDA-approved Drug Library, L1021). Compounds were dispensed using an Echo acoustic dispenser and tested at a final concentration of 20 µM in a total assay volume of 20 μl in 384-well plate format. DMSO was added to each well at a final concentration of 0.2% (v/v) and wells containing only DMSO were used as negative control. After 30 min incubation at room temperature, luminescence was measured on a Tecan M1000 multi-mode plate reader. Raw luminescence reads from each well on each plate were normalized to the median luminescence signal for that plate. In the ApexBio screen, the scaled and normalized PKA signal for each compound was subtracted from the MeCP2-TBL1 signal for the same compound. After plate normalization the robust SSMD (SSMD*) was calculated as described elsewhere. A threshold of SSMD* ≥ 3 was applied for discerning primary hits.
Assays were performed as described above except instead of a single concentration, a threefold serial dilution ranging from 60 to 0.03 μM was tested in triplicate for each of the compounds. Half-maximal inhibitory concentrations were calculated using global nonlinear regression by fitting the response data sets of all compounds simultaneously with a four-parameter logistic curve of log inhibitor concentration versus normalized luminescence using GraphPad Prism. During fitting, the maximum and minimum curve values were shared between the data sets.

Compared with `Cc1nc(C2CCN(C(=O)C3CCCCC3)C2)nc2c1CC(=O)N2CCCc1ccccc1` (stereo not drawn) [BDF_25113060], `Cc1nn(C)cc1CCC(=O)N1CCC[C@@H]2NC(=O)c3ccccc3OCCCCC[C@@H]21` [BDH_33734258] is lower in Inhibition percent: -1.14 for the first, -1.51 for the second.

Compared with `CNC(=O)C1CN(C(=O)C2(C)CCN(C(=O)c3ccccc3)CC2)CCN1Cc1ccccc1` (stereo not drawn) [BDH_32370904], `CC1(C)Oc2ccccc2[C@H]2OCC3(CCN(C(=O)c4ccnc(N5CCCC5)c4)CC3)C[C@@H]21` [BDG_33695760] is higher in Inhibition percent: -3.09 for the first, 0.33 for the second.

Compared with `C[C@]12C[C@@H](Cc3ccccc3)N(C(=O)c3cccc(Cn4ccnc4)c3)[C@H]1CCCC(=O)N2` [BDH_32339936], `C[C@]12C[C@@H](Cc3ccccc3)N(C(=O)CC3CCN(c4ncccn4)CC3)[C@H]1CCCC(=O)N2` [BDH_33627845] is lower in Inhibition percent: 5.72 for the first, -0.41 for the second.

Going from `O=C1CCCC[C@]2(CN(C(=O)CCc3ccc(F)cc3)C[C@H]2c2ccccc2)N1` [BDH_32219010] to `CN(C)CCOc1ccc(C(=O)N(C)CC2(O)CCCN(c3ccnc4ccncc34)C2)cc1` (stereo not drawn) [BDH_34040371], the Inhibition percent falls from -1.17 to -4.15.

Compared with `Cc1cccc(Cc2cccc(C3CCCN(C(=O)c4ccnc(-c5cncnc5)c4)C3)n2)c1` (stereo not drawn) [BDH_32367369], `Cc1nonc1COc1ccccc1C(=O)N1C2CCC1CC(Cc1cnc3ccccc3c1)C2` (stereo not drawn) [BDH_32356179] is higher in Inhibition percent: -1.96 for the first, 3.35 for the second.

First: C[C@@H]1CC[C@@H]2[C@@H](C1)c1c(ccc(C(=O)NCC(C)(C)CN3CCCC3)c1O)OC2(C)C [BDG_34018827]
Second: CCOc1cccc2c1OC(C)(C)[C@@H]1C[C@@H]3[C@@H](CCCN3C(=O)c3cccc(F)c3C(=O)O)O[C@@H]21 [BDG_34132357]
The Inhibition percent of the first is higher: 1.80 for the first, -0.29 for the second.

With `Cc1nc(Nc2ncc(C#N)s2)ccc1CC1COCCN(S(C)(=O)=O)C1` (stereo not drawn) [BDG_51128826] the Inhibition percent was -0.16.

same assay, conditions: primary screen of the Asinex library, sheet "Sargen output Asinex library", one well per compound

Compared with `Cc1nccn1Cc1ccccc1C(=O)N1CCCC(Cc2cccc3cccnc23)C1` (stereo not drawn) [BDH_32339247], `O=C(c1ccccc1CN1CCCC1)N1CCCC(c2cccc(Cc3ccccc3F)n2)C1` (stereo not drawn) [BDH_32353816] is higher in Inhibition percent: -0.91% for the first, 1.91% for the second.

Compared with `O=C(CCCNc1ncccn1)N1CCCC1c1cncc(Cc2cccc(Cl)c2)n1` (stereo not drawn) [BDE_27217604], `COc1cccc(Cc2cnc(C3CCCCN3C(=O)COc3ncnc4ccccc34)o2)c1` (stereo not drawn) [BDE_33513545] is higher in Inhibition percent: -3.79% for the first, 0.39% for the second.

First: CNc1ncccc1CN1CCCC(c2cccc(Cc3cccc(F)c3)n2)C1 (stereo not drawn) [BDC_27866586]
Second: Cn1cc(-c2cccc(C(=O)N3CCCC(c4cccc(Cc5ccc(F)cc5)n4)C3)n2)cn1 (stereo not drawn) [BDH_32365360]
The Inhibition percent of the first is lower: 7.34% for the first, 7.56% for the second.

Going from `CN1CCC(Cc2cccc(F)c2)(C(=O)N2CCC(Cc3cccc4cccnc34)CC2)CC1` [BDH_32354499] to `CN1CCC(Cc2ccc(F)cc2)(C(=O)N2CCC(Cc3cccc4cccnc34)CC2)CC1` [BDH_32354505], the Inhibition percent falls from -1.74% to -1.95%.

Going from `O=C1CCCN1CCOc1ccccc1C(=O)N1CCCC(Cc2ccc3ncccc3c2)CC1` (stereo not drawn) [BDH_32358602] to `Cc1cc(Oc2ccc(F)cc2)nc(C2CCCN(C(=O)c3cccc(Cn4ccnc4)c3)C2)n1` (stereo not drawn) [BDH_32361331], the Inhibition percent rises from -0.32% to 1.28%.

Going from `O=C1CNC(=O)C2(C/C=C/C[C@H]3COCC[C@@H]3N1)CCN(C(=O)COc1ccccc1)CC2` [BDH_33728395] to `CCc1nnsc1C(=O)NC[C@]1(c2ccccc2)CC[C@@H](O)[C@H](N2CCOCC2)CC1` [BDH_34124703], the Inhibition percent rises from -3.47% to 0.50%.

Compared with `CCCC(=O)N1Cc2ccccc2OC2(CCC(N(C)CC3CCCCC3)CC2)C1` (stereo not drawn) [BDD_24804536], `CC(=O)N1CCc2nc(C3CCN(C)CC3)nc(NCCCN(C)c3ccccc3)c2C1` [BDE_25368265] is lower in Inhibition percent: -1.18% for the first, -2.49% for the second.

Going from `O=C(CN1C[C@@H](c2cc(F)cc(F)c2)[C@@]2(CCCCC(=O)N2)C1)Nc1ccnn1C1CCCC1` [BDH_33619464] to `Cc1cc(C)cc(-c2cccc(CC3(C(=O)NCCCN4CCC(C)CC4)CCOCC3)c2)c1` [BDD_24116218], the Inhibition percent falls from 4.29% to -2.01%.

Compared with `O=C(c1cc(-c2cccc(F)c2)no1)N1CCC[C@@]2(C[C@@H](Oc3ccccc3F)CO2)C1` [BDH_33517958], `C[C@]12C[C@@H]3N[C@H]1CCC[C@H]2N(C(=O)c1cccc(Cc2ccccc2F)n1)[C@H]3Cc1ccccc1` [BDG_33393043] is higher in Inhibition percent: 4.74% for the first, 5.29% for the second.

Going from `Cc1cccc(Oc2cncc(C3CCCN(C(=O)c4cccc(Cn5ccnc5C)c4)C3)n2)c1` (stereo not drawn) [BDH_32360361] to `CN(CCC(=O)N1[C@H](Cc2ccccc2)C[C@]2(C)NC(=O)CCC[C@H]12)Cc1cccnc1` [BDG_33630477], the Inhibition percent falls from 0.07% to -2.32%.

In the case of `O=C(NCCc1ccccc1)[C@@H]1[C@H](O)[C@@H](c2ccc(F)cc2)CN1C(=O)CCc1ccc(Cl)cc1` [BDG_34023221], the Inhibition percent is reported as 2.58%.

same assay, conditions: primary screen of the Asinex library, sheet "Sargen output Asinex library", one well per compound, Batch Ref. 1

First: Cn1cc(-c2cc(C(=O)N3CCC(c4cncc(-c5cccc(Cl)c5)n4)CC3)ccn2)cn1 [BDH_32366963]
Second: O=C(c1ccnc(Cc2ccccc2F)c1)N1CCC(Cc2nccnc2-c2ncc[nH]2)CC1 [BDH_33521693]
The Inhibition percent of the first is higher: 1.59% for the first, 0.97% for the second.

Going from `O=C(c1ccc(CN2CCOCC2)cc1)N1CCCC1c1ccnc(-c2cccc(Cl)c2)n1` (stereo not drawn) [BDE_33630026] to `COc1ccc(OC)c(-c2cc(C(=O)N3CCCCC3c3ncc(Cc4ccccc4)o3)[nH]n2)c1` (stereo not drawn) [BDE_33513704], the Inhibition percent rises from 0.26% to 18.69%.

Compared with `CC1(C)Oc2cc(O)ccc2[C@H]2OCC3(CCN(C(=O)c4ncccc4O)CC3)C[C@@H]21` [BDG_33691662], `COC(=O)C[C@H]1CC[C@H]2[C@H](O1)c1cc(-c3ccccc3)ccc1OC2(C)C` [BDG_34023292] is higher in Inhibition percent: -1.26% for the first, 2.57% for the second.

Going from `CC(=O)N[C@@H](Cc1c[nH]c2ccccc12)C(=O)N1CC[C@H]2O[C@H]3c4cc(Cl)ccc4OC(C)(C)[C@@H]3C[C@H]2C1` [BDG_33905586] to `CC(=O)N[C@@]12CCN(CC(=O)Nc3cccc(F)c3)C[C@@H]1[C@@H](c1ccccc1)N(C(C)=O)C2` [BDH_33625995], the Inhibition percent falls from -0.13% to -1.85%.

Going from `Cc1cccc(CC(=O)N2CCCCC2c2ncc(C(=O)NCc3ccccc3)c(C)n2)c1` (stereo not drawn) [BDC_23190776] to `O=C(NCc1ccccc1)c1cccnc1C1CCCCN1CC(=O)N1CCNC1=O` (stereo not drawn) [BDE_24470675], the Inhibition percent falls from -1.94% to -2.87%.

Going from `O=C(O)CCCC(=O)N[C@@H]1C[C@@H](Oc2cccc(Cl)c2)[C@H](O)[C@H]1N1CCc2ccccc2C1` [BDG_34135462] to `CC(=O)N[C@H]1C[C@@H](C(=O)N(C)C)N(CC(=O)NCc2ccccc2Cl)[C@H]1c1ccccc1` [BDH_33626360], the Inhibition percent rises from -0.65% to 0.20%.

Going from `NC(=O)C1(Cc2cc(C3CCCCC3)no2)CCN(C(=O)CN2CCCCCC2=O)C1` (stereo not drawn) [BDF_24693170] to `CN(C)CC(=O)N1CCCC(C)(C(=O)N2CCC(c3cccc(Cc4ccccc4)n3)CC2)C1` (stereo not drawn) [BDH_32359557], the Inhibition percent rises from -2.18% to 2.74%.

First: COc1cccc(-c2cc(C(=O)N3[C@H]4CCC[C@H]5N(C)[C@@H](Cc6ccccc6)[C@@H]3C[C@@]45C)[nH]n2)c1 [BDG_33504530]
Second: Cc1nc(C2(O)CCCN(Cc3ccncc3)CC2)sc1CCOc1ccccc1 (stereo not drawn) [BDF_26909339]
The Inhibition percent of the first is higher: 8.58% for the first, -3.76% for the second.

For `CC(=O)N[C@@H]1CCO[C@H](c2ccc(NC(=O)C(c3ccccc3)c3ccccc3)cc2)C1` [BDF_23111075], the Inhibition percent was 0.91%.

Reference: PMC9995496, “A screen for MeCP2-TBL1 interaction inhibitors using a luminescence-based assay” (Scientific Reports, 2023)
